These results are taken from patent publication US20260042769A1, “TRIARYL AGONISTS OF ALPHA-2 ADRENERGIC RECEPTORS” (ALCEPTOR THERAPEUTICS, INC., priority 2023, published 2026).

As usually defined, the EC50 is the concentration needed to bring the measured effect to its halfway point.

The target of this assay is T1, human ADRA2B receptor (Homo sapiens, UniProt P18089).
T1 construct: expressed in transfected cells
T1 sequence (P18089 1-450): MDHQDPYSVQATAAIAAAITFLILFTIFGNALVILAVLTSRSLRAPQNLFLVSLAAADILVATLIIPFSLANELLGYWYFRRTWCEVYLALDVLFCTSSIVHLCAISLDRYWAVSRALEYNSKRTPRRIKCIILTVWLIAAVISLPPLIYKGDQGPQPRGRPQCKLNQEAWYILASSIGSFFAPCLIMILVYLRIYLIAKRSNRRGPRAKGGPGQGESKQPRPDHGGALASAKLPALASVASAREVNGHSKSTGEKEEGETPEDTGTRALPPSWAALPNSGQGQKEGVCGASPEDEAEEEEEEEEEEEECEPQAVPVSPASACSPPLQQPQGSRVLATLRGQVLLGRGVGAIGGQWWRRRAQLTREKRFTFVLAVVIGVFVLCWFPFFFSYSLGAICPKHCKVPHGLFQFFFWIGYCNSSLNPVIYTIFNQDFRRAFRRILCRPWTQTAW
Put plainly: ADRA2B arrestin agonist assay. In kind it is cell-based. The settings on record: CHO-K1 cells stably expressing human ADRA2B; read-out: Beta-Arrestin - Human Alpha2B EC50. How it is done:
ADRA2A and ADRA2B Arrestin Agonist Assay Method
The arrestin assay uses frozen CHO-K1 cell lines stably expressing human ADRA2A and ADRA2B receptors. Cells are frozen following normal cell freezing protocols. Briefly, cells are washed with PBS and then dissociated with 0.25% trypsin. Dissociated cells are quenched in full media and then collected by centrifugation at 290×g for 5 minutes. […] Cells are stored at −80° C. (or in liquid N2 if stored >6 months) until the day of the assay.
On the day before the assay, frozen cells are thawed in a 37° C. water bath, brought up in 20 mL of full media, and collected via centrifugation at 290×g for 5 minutes. […] Cells are incubated overnight in a 37° C., 5% CO2 cell incubator.
On the day of the assay, agonists are diluted in Opti-MEM to 3.5x of the final assay concentration. 4 μL of agonists are added to the cells and incubated for 2 hours at 37° C. in a 5% CO2 cell incubator. 6 μL of arrestin detection reagents are dispensed onto the cells and the plates are incubated for 2 hours at room temperature. […] Plates are read on an Envision luminescence plate reader.

As for `Cc1cc(C[C@@H](c2c[nH]cn2)c2cccc(C)c2F)ncn1` [Compound 143, 4-[(R)-2-(2-fluoro-3-tolyl)-2-(4-imidazolyl)ethyl]-6-methylpyrimidine], the concentration for a half-maximal effect (EC50) is less than 0.01 µM.
As to `Cc1cc(C[C@H](c2c[nH]cn2)c2cccc(C)c2F)ncn1` [Compound 144, 4-[(S)-2-(2-fluoro-3-tolyl)-2-(4-imidazolyl)ethyl]-6-methylpyrimidine], the concentration giving a half-maximal response (EC50) was more than 0.5 µM.
As for `Cc1cccc(C(Cc2ccc(C#N)nc2)c2c[nH]cn2)c1C` (centres unmarked) [Compound 145, 5-[2-(4-imidazolyl)-2 (2,3-xylyl)ethyl]-2-pyridinecarbonitrile], the EC50 lay within 0.01 to 0.05 µM.
For `Cc1cccc([C@@H](Cc2cccc(CO)n2)c2c[nH]cn2)c1C` [Compound 146, {6-[(R)-2-(4-imidazolyl)-2-(2,3-xylyl)ethyl]-2-pyridyl}methanol], the EC50 is less than 0.01 µM.
Take `Cc1cccc([C@H](Cc2cccc(CO)n2)c2c[nH]cn2)c1C` [Compound 147, {6-[(S)-2-(4-imidazolyl)-2-(2,3-xylyl)ethyl]-2-pyridyl}methanol]: the EC50 is more than 0.5 µM.
Regarding `Cc1cccc([C@@H](Cc2cccc(CF)n2)c2c[nH]cn2)c1C` [Compound 150, 4-{(R)-2-[6-(fluoromethyl)-2-pyridyl]-1-(2,3-xylyl)ethyl}imidazole], the EC50 was less than 0.01 µM.
Consider `Cc1cccc([C@H](Cc2cccc(CF)n2)c2c[nH]cn2)c1C` [Compound 151, 4-{(S)-2-[6-(fluoromethyl)-2-pyridyl]-1-(2,3-xylyl)ethyl}imidazole], for which the half-maximal effective concentration (EC50) was 0.05 to 0.5 µM.
In the case of `Cc1cccc([C@@H](Cc2ccnc(CF)n2)c2c[nH]cn2)c1C` [Compound 153, 4-[(R)-2-(4-imidazolyl)-2-(2,3-xylyl)ethyl]-2-(fluoromethyl) pyrimidine] it was less than 0.01 µM; in that of `COc1nccc(CC(c2c[nH]cn2)c2cccc(F)c2C)n1` (centres unmarked) [Compound 154, 4-[2-(3-fluoro-2-tolyl)-2-(4-imidazolyl)ethyl]-2-methoxypyrimidine], 0.01 to 0.05 µM; in that of `COc1nccc(CC(c2c[nH]cn2)c2cccc(C)c2F)n1` (centres unmarked) [Compound 155, 4-[2-(2-fluoro-3-tolyl)-2-(4-imidazolyl)ethyl]-2-methoxypyrimidine], less than 0.01 µM.
On to `Cc1cccc(C(Cc2ccnc(CO)n2)c2c[nH]cn2)c1F` (centres unmarked) [Compound 156, {4-[2-(2-fluoro-3-tolyl)-2-(4-imidazolyl)ethyl]-2-pyrimidinyl}methanol], for which the EC50 is less than 0.01 µM.
In the case of `Cc1nccc(CC(c2c[nH]cn2)c2cccc(C)c2Cl)n1` (centres unmarked) [Compound 157, 4-[2-(2-chloro-3-tolyl)-2-(4-imidazolyl)ethyl]-2-methylpyrimidine], the EC50 is less than 0.01 µM.
Take `Cc1nccc(CC(c2c[nH]cn2)c2cccc(Cl)c2C)n1` (centres unmarked) [Compound 158, 4-[2-(3-chloro-2-tolyl)-2-(4-imidazolyl)ethyl]-2-methylpyrimidine]: the EC50 was less than 0.01 µM.
In the case of `Cc1nccc(CC(c2ccc3cccnc3c2)c2c[nH]cn2)n1` (centres unmarked) [Compound 161, 4-[2-(4-imidazolyl)-2-(7-quinolyl)ethyl]-2-methylpyrimidine] it was more than 0.5 µM.
With `COc1nccc(CC(c2ccc(F)c(F)c2)c2c[nH]cn2)n1` (centres unmarked) [Compound 162, 4-[2-(3,4-difluorophenyl)-2-(4-imidazolyl)ethyl]-2-methoxypyrimidine], the EC50 was more than 0.5 µM.
In the case of `Cc1cc(CC(c2c[nH]cn2)c2cccc(Cl)c2F)ncn1` (centres unmarked) [Compound 163, 4-[2-(3-chloro-2-fluorophenyl)-2-(4-imidazolyl)ethyl]-6-methylpyrimidine] it was 0.05 to 0.5 µM; in that of `Cc1cc(CC(c2c[nH]cn2)c2cccc3ccn(C)c23)ncn1` (centres unmarked) [Compound 165, 4-[2-(4-imidazolyl)-2-(1-methyl-7-indolyl)ethyl]-6-methylpyrimidine], 0.05 to 0.5 µM; in that of `Cc1nccc(CC(c2c[nH]cn2)c2cccc3c2cnn3C)n1` (centres unmarked) [Compound 167, 4-[1-(4-imidazolyl)-2-(2-methyl-4-pyrimidinyl)ethyl]-1-methyl-1H-indazole], less than 0.01 µM.
For the compound `Cc1cccc([C@H](Cc2ccnc(C3CC3)n2)c2c[nH]cn2)c1C` [Compound 168, 4-[(S)-2-(4-imidazolyl)-2-(2,3-xylyl)ethyl]-2-cyclopropylpyrimidine], the concentration for a half-maximal effect (EC50) was in the range of 0.01 to 0.05 µM.
In the case of `Cc1cccc([C@@H](Cc2ccnc(C3CC3)n2)c2c[nH]cn2)c1C` [Compound 169, 4-[(R)-2-(4-imidazolyl)-2-(2,3-xylyl)ethyl]-2-cyclopropylpyrimidine] it was less than 0.01 µM.
As for `Cc1nccc(CC(c2ccc3c(c2)OCCO3)c2c[nH]cn2)n1` (centres unmarked) [Compound 175, 4-[2-(2,3-dihydro-1,4-benzodioxin-6-yl)-2-(4 imidazolyl)ethyl]-2-methylpyrimidine], the EC50 was more than 0.5 µM.
The same measure for `COCc1nccc(CC(c2c[nH]cn2)c2cccc(C)c2C)n1` (centres unmarked) [Compound 176, 4-[2-(4-imidazolyl)-2-(2,3-xylyl)ethyl]-2-(methoxymethyl) pyrimidine]: less than 0.01 µM; for `COc1nccc(C[C@@H](c2c[nH]cn2)c2cccc(C)c2OC)n1` [Compound 179, 4-[(R)-2-(4-imidazolyl)-2-(2-methoxy-3-tolyl)ethyl]-2-methoxypyrimidine]: less than 0.01 µM; for `COc1nccc(C[C@H](c2c[nH]cn2)c2cccc(C)c2OC)n1` [Compound 180, 4-[(S)-2-(4-imidazolyl)-2-(2-methoxy-3-tolyl)ethyl]-2-methoxypyrimidine]: more than 0.5 µM.
For `COc1nccc(CC(c2c[nH]cn2)c2cccc(OC)c2F)n1` (centres unmarked) [Compound 181, 4-[2-(2-fluoro-3-methoxyphenyl)-2-(4-imidazolyl)ethyl]-2-methoxypyrimidine], the EC50 was in the range of 0.01 to 0.05 µM.
Consider `COc1nccc(C[C@@H](c2c[nH]cn2)c2cccc(F)c2OC)n1` [Compound 182, 4-[(R)-2-(3-fluoro-2-methoxyphenyl)-2-(4-imidazolyl)ethyl]-2-methoxypyrimidine], for which the EC50 is 0.01 to 0.05 µM.
Take `COc1nccc(C[C@H](c2c[nH]cn2)c2cccc(F)c2OC)n1` [Compound 183, 4-[(S)-2-(3-fluoro-2-methoxyphenyl)-2-(4-imidazolyl)ethyl]-2-methoxypyrimidine]: the concentration for a half-maximal effect (EC50) is more than 0.5 µM.
Consider `COc1c(Cl)cccc1C(Cc1ccnc(C)n1)c1c[nH]cn1` (centres unmarked) [Compound 187, 4-[2-(3-chloro-2-methoxyphenyl)-2-(4-imidazolyl)ethyl]-2-methylpyrimidine], for which the 50% effective concentration (EC50) fell in the range of 0.05 to 0.5 µM.
On to `COc1nccc(CC(c2c[nH]cn2)c2ccc(C)c(F)c2F)n1` (centres unmarked) [Compound 189, 4-[2-(2,3-difluoro-4-tolyl)-2-(4-imidazolyl)ethyl]-2-methoxypyrimidine], for which the concentration for a half-maximal effect (EC50) is more than 0.5 µM.
On to `COc1nccc(CC(c2c[nH]cn2)c2cccc(Cl)c2F)n1` (centres unmarked) [Compound 190, 4-[2-(3-chloro-2-fluorophenyl)-2-(4-imidazolyl)ethyl]-2-methoxypyrimidine], for which the EC50 fell in the range of 0.01 to 0.05 µM.
In the case of `OCc1nccc(CC(c2c[nH]cn2)c2cccc(Cl)c2F)n1` (centres unmarked) [Compound 191, {4-[2-(3-chloro-2-fluorophenyl)-2-(4-imidazolyl)ethyl]-2-pyrimidinyl}methanol] it was 0.01 to 0.05 µM.
Turning to `Cc1nccc(CC(c2c[nH]cn2)c2cccc(Cl)c2Cl)n1` (centres unmarked) [Compound 192, 4-[2-(2,3-dichlorophenyl)-2-(4-imidazolyl)ethyl]-2-methylpyrimidine], the EC50 was less than 0.01 µM.
In the case of `COc1nccc(CC(c2c[nH]cn2)c2ccccc2OC2CC2)n1` (centres unmarked) [Compound 195, 4-[2-(o-cyclopropoxyphenyl)-2-(4-imidazolyl)ethyl]-2-methoxypyrimidine] it was 0.01 to 0.05 µM; in that of `CCOc1c(F)cccc1C(Cc1ccnc(OC)n1)c1c[nH]cn1` (centres unmarked) [Compound 197, 4-[2-(2-ethoxy-3-fluorophenyl)-2-(4-imidazolyl)ethyl]-2-methoxypyrimidine], 0.05 to 0.5 µM; in that of `COc1nccc(CC(c2c[nH]cn2)c2cccc(C(F)(F)F)c2C)n1` (centres unmarked) [Compound 202, 4-{2-(4-imidazolyl)-2 [3-(trifluoromethyl)-2-tolyl]ethyl}-2-methoxypyrimidine], less than 0.01 µM.
For the compound `Cc1cccc([C@@H](Cc2ccnc(C(C)(C)F)n2)c2c[nH]cn2)c1C` [Compound 205, 4-[(R)-2-(4-imidazolyl)-2-(2,3-xylyl)ethyl]-2-(1-fluoro-1-methylethyl)pyrimidine], the EC50 was less than 0.01 µM.
On to `Cc1cc(CC(c2c[nH]cn2)c2cccc(C)c2C)nc(C(C)(C)F)n1` (centres unmarked) [Compound 206, 2-(1-fluoro-1-methylethyl)-4-[2-(4 imidazolyl)-2-(2,3-xylyl)ethyl]-6-methylpyrimidine], for which the EC50 was less than 0.01 µM.
For `Cc1cc(CC(c2c[nH]cn2)c2cccc(C)c2C)nc(C(C)(C)O)n1` (centres unmarked) [Compound 207, 2-{4-[2-(4-imidazolyl)-2-(2,3-xylyl)ethyl]-6-methyl 2-pyrimidinyl}-2-propanol], the 50% effective concentration (EC50) was less than 0.01 µM.
